Results published in the OligoGym collection.
HELM strings list units from the 5' end as sugar, base in round brackets, then linkage (d deoxyribose, r ribose, m 2'-O-methyl, p phosphodiester). Strings are as the collection lists them, not checked against the first reports. ss, as = sense and antisense strand; [lna] = locked nucleic acid (LNA); [s4r] = 4'-thioribose; [fl2r] = 2'-fluoro

Conditions: siRNA
Also: test system not given here.

Substance	target mRNA knockdown
RNA1{[s4r](A)p.[s4r](A)p.[s4r](A)p.[s4r](C)p.[s4r](A)p.[s4r](U)p.r(G)p.r(C)p.r(A)p.r(G)p.r(A)p.r(A)p.r(A)p.[s4r](A)p.[s4r](U)p.[s4r](G)p.[s4r](C)p.[s4r](U)p.[s4r](G)p.r(T)p.r(T)}|RNA2{r(C)p.r(A)p.r(G)p.r(C)p.r(A)p.r(U)p.r(U)p.r(U)p.r(U)p.r(C)p.r(U)p.r(G)p.r(C)p.r(A)p.r(U)p.[s4r](G)p.[s4r](U)p.[s4r](U)p.[s4r](U)p.r(T)p.r(T)}$$$RNA1{StrandType:ss}|RNA2{StrandType:as}$	84.4%
RNA1{[lna](T)p.r(G)p.r(A)p.r(G)p.r(A)p.r(G)p.r(A)p.r(A)p.r(A)p.r(G)p.r(C)p.r(A)p.r(C)p.r(A)p.r(G)p.r(A)p.r(A)p.r(A)p.r(A)p.[lna](T)p.[lna](T)}|RNA2{r(U)p.r(U)p.r(U)p.r(U)p.r(C)p.r(U)p.r(G)p.r(U)p.r(G)p.r(C)p.r(U)p.r(U)p.r(U)p.r(C)p.r(U)p.r(C)p.r(U)p.r(C)p.r(A)p.r(T)p.r(T)}$$$RNA1{StrandType:ss}|RNA2{StrandType:as}$	74%
RNA1{r(A)p.r(U)p.r(C)p.r(C)p.m(U)p.r(G)p.m(C)p.r(A)p.r(G)p.r(A)p.r(A)p.m(G)p.r(A)p.r(A)p.r(G)p.r(C)p.r(C)p.r(U)p.r(C)p.r(T)p.r(T)}|RNA2{r(G)p.r(A)p.r(G)p.r(G)p.r(C)p.r(U)p.r(U)p.r(C)p.r(U)p.r(U)p.r(C)p.m(U)p.r(G)p.m(C)p.r(A)p.r(G)p.r(G)p.r(A)p.r(U)p.r(T)p.r(T)}$$$RNA1{StrandType:ss}|RNA2{StrandType:as}$	50%
RNA1{r(A)p.r(A)p.r(C)p.r(C)p.r(C)p.r(A)p.r(C)p.r(C)p.r(A)p.r(C)p.r(A)p.r(G)p.r(C)p.[fl2r](U)p.[fl2r](A)p.r(G)p.r(A)p.r(A)p.r(C)p.r(U)p.r(U)}|RNA2{r(A)p.r(A)p.r(G)p.r(U)p.r(U)p.r(C)p.[fl2r](U)p.[fl2r](A)p.r(G)p.r(C)p.r(U)p.r(G)p.r(U)p.r(G)p.r(G)p.r(U)p.r(G)p.r(G)p.r(G)p.r(U)p.r(U)}$$$RNA1{StrandType:ss}|RNA2{StrandType:as}$	57%
RNA1{r(A)p.r(A)p.r(G)p.r(G)p.r(A)p.r(A)p.r(C)p.r(G)p.r(G)p.r(G)p.r(G)p.r(A)p.m(C)p.r(A)p.r(C)p.r(U)p.m(U)p.r(A)p.r(C)p.r(T)p.r(T)}|RNA2{r(G)p.m(U)p.r(A)p.r(A)p.r(G)p.m(U)p.r(G)p.r(U)p.r(C)p.r(C)p.r(C)p.r(C)p.r(G)p.r(U)p.r(U)p.r(C)p.r(C)p.r(U)p.r(U)p.r(T)p.r(T)}$$$RNA1{StrandType:ss}|RNA2{StrandType:as}$	35%
RNA1{r(C)p.r(U)p.r(U)p.r(A)p.r(C)p.r(G)p.r(C)p.r(U)p.r(G)p.r(A)p.r(G)p.r(U)p.r(A)p.r(C)p.r(U)p.r(U)p.r(C)p.r(G)p.r(A)p.[lna](T)p.[lna](T)}|RNA2{r(U)p.r(C)p.r(G)p.r(A)p.r(A)p.r(G)p.r(U)p.r(A)p.r(C)p.r(U)p.r(C)p.r(A)p.r(G)p.r(C)p.r(G)p.r(U)p.r(A)p.r(A)p.r(G)p.r(T)p.r(T)}$$$RNA1{StrandType:ss}|RNA2{StrandType:as}$	97%
RNA1{r(A)p.r(A)p.r(A)p.r(C)p.r(A)p.r(U)p.r(G)p.r(C)p.r(A)p.r(G)p.r(A)p.r(A)p.r(A)p.r(A)p.r(U)p.r(G)p.r(C)p.r(U)p.r(G)p.r(T)p.r(T)}|RNA2{r(C)p.r(A)p.r(G)p.r(C)p.r(A)p.r(U)p.r(U)p.r(U)p.r(U)p.r(C)p.r(U)p.r(G)p.r(C)p.r(A)p.r(U)p.[s4r](G)p.[s4r](U)p.[s4r](U)p.[s4r](U)p.r(T)p.r(T)}$$$RNA1{StrandType:ss}|RNA2{StrandType:as}$	52.7%
RNA1{r(G)p.r(A)p.m(U)p.r(A)p.r(C)p.r(U)p.r(U)p.r(C)p.m(U)p.r(G)p.r(G)p.r(U)p.r(U)p.r(C)p.r(C)p.r(C)p.r(U)p.r(C)p.r(C)p.r(T)p.r(T)}|RNA2{r(G)p.r(G)p.r(A)p.r(G)p.r(G)p.r(G)p.r(A)p.r(A)p.r(C)p.m(C)p.r(A)p.r(G)p.r(A)p.r(A)p.r(G)p.m(U)p.r(A)p.r(U)p.r(C)p.r(T)p.r(T)}$$$RNA1{StrandType:ss}|RNA2{StrandType:as}$	45%
